Data from ChEMBL document CHEMBL2406913, “First synthesis and biological evaluation of 4-amino-2-aryl-6,9-dichlorobenzo[g]pteridines as inhibitors of TNF-α and IL-6” (Eur J Med Chem, 2013).

Assays:
HL-60 [1] = test: Antiinflammatory activity in human HL-60 derived macrophage-like cells assessed as inhibition of LPS-induced IL-6 production treated 30 mins before LPS stimulation measured after 24 hrs by ELISA; format: functional, cell-based
HL-60 [2] = test: Cytotoxicity against human HL-60 derived macrophage-like cells at 50 uM after 1 hr by MTT assay; format: cell-based; details: hl-60, 1 h
HL-60 [3] = test: Antiinflammatory activity in human HL-60 derived macrophage-like cells assessed as inhibition of LPS-induced IL-6 production at 50 uM treated 30 mins before LPS stimulation measured after 24 hrs by ELISA; format: functional
HL-60 [4] = test: Antiinflammatory activity in human HL-60 derived macrophage-like cells assessed as inhibition of LPS-induced TNFalpha production at 50 uM treated 30 mins before LPS stimulation measured after 24 hrs by ELISA; format: functional
HL-60 [5] = test: Antiinflammatory activity in human HL-60 derived macrophage-like cells assessed as inhibition of LPS-induced TNFalpha production treated 30 mins before LPS stimulation measured after 24 hrs by ELISA; format: functional, cell-based

Compound	IC50 (HL-60 [1])	Activity (HL-60 [2])	inhibition at 50 µM (HL-60 [3])	inhibition at 50 µM (HL-60 [4])	IC50 (HL-60 [5])
Cc1cccc(-c2nc(N)c3nc4c(Cl)ccc(Cl)c4nc3n2)c1	25.7 µM	0.2%	95.1%	100%	6 µM
Nc1nc(-c2ccc(Cl)cc2)nc2nc3c(Cl)ccc(Cl)c3nc12	46.9 µM	2.5%	54.3%	6.7%	
Nc1nc(-c2cc(C(F)(F)F)cc(C(F)(F)F)c2)nc2nc3c(Cl)ccc(Cl)c3nc12	22.9 µM	0%	100%	99.7%	7.3 µM
Cc1ccc(-c2nc(N)c3nc4c(Cl)ccc(Cl)c4nc3n2)cc1	25.2 µM	3.9%	95.4%	87.4%	7.4 µM
Nc1nc(-c2ccccc2)nc2nc3c(Cl)ccc(Cl)c3nc12	34.4 µM	13%	73.8%	75.2%	35.9 µM
Nc1ccc(-c2nc(N)c3nc4c(Cl)ccc(Cl)c4nc3n2)cc1	25.7 µM	15.7%	85.1%	63.2%	36.2 µM
Nc1nc(-c2ccc(C(F)(F)F)cc2)nc2nc3c(Cl)ccc(Cl)c3nc12	35.4 µM	0%	83%	67.2%	8.7 µM
Nc1nc(-c2cccc([N+](=O)[O-])c2)nc2nc3c(Cl)ccc(Cl)c3nc12		1.5%	41.3%	0%	
Cc1ccc(-c2nc(N)c3nc4c(Cl)ccc(Cl)c4nc3n2)cc1F	26.5 µM	1.8%	93%	80%	5.8 µM
C[S+]([O-])c1ccc(-c2nc(-c3ccncc3)c(-c3ccc(F)cc3)[nH]2)cc1 (stereo unspecified) [SB-203580]		0%	8.4%	68.1%	8.6 µM
